Reference: article PMC10863309 (Redox Biology, 2024)
Values joined by “and” are separate entries in the source; they are usually repeats but may differ in a detail not shown here. Equal entries are not always repeated. Where two headings read alike, the source gives them in different places.

Legend:
[1] = system: BV2 cells; assay: MTT cell viability assay; format: cell-based, mouse
[2] = system: LPS-induced NO release of BV2 microglial cells; assay: Nitrite quantification; format: cell-based, mouse; conditions: 1 h pretreatment, LPS 800 ng/ml 24 h
[3] = Mus musculus, BV-2, read-out: Cell viability IC50

Row | Compound | IC50 [1, 3] | NO Inhibition (% of LPS) LPS/drugs (0.7 μM) [2] | NO Inhibition (% of LPS) LPS/drugs (1.5 μM) [2] | NO Inhibition (% of LPS) LPS/drugs (3 μM) ([2]; 3 μM) | NO Inhibition (% of LPS) LPS/drugs (12 μM) ([2]; 12 μM) | NO Inhibition (% of LPS) LPS/drugs (25 μM) ([2]; 25 μM) | NO Inhibition (% of LPS) LPS/drugs (50 μM) ([2]; 50 μM) | IC50 ([1]; read-out: Cell viability IC50, BV2 microglial cells)
1 | CC[C@]12C=CCN3CC[C@]4(C(=C(C(=O)OC)C1)Nc1ccccc14)[C@@H]32 [Compound 7, tabersonine] | 16.1 ± 1.1 µM | 18.8 ± 7.0 % of LPS | 29.3 ± 3.1 % of LPS | 45.9 ± 2.4 % of LPS |  |  |  | 
2 | C[C@@H]1C[C@H]2[C@@H]3CCC4=CC(=O)C=C[C@]4(C)[C@@]3(F)[C@@H](O)C[C@]2(C)[C@@]1(O)C(=O)CO [Dexamethasone, reference compound] | > 100 µM |  |  |  | 61.9 ± 4.7 % of LPS | 71.1 % of LPS and 71.1 ± 3.0 % of LPS | 75.1 ± 1.9 % of LPS | 
3 | lochnericine [Compound 2] |  | 11.2 ± 2.0 % of LPS | 31.3 ± 3.2 % of LPS |  |  |  |  | 28.7 ± 1.2 µM
